Test results taken from article PMC9505826, “A Peptide Inhibitor of the Human Cytomegalovirus Core Nuclear Egress Complex” (Pharmaceuticals, 2022).

What was measured:
[1] = system: HCMV AD169; type: cell-based, human cytomegalovirus (HCMV strain AD169); settings: for EC50: HFFs infected with HCMV AD169, MOI 0.1, peptides refreshed at 2, 5 and 7 d p.i., viral genome equivalents in supernatants at 8 d p.i. by qPCR, % of DMSO control, ± standard deviation, at least three independent experiments, read-out: EC50, antiviral effect; for effect on HCMV infection (in words): HFFs infected with HCMV AD169, qPCR of supernatants, concentrations up to 10 µM
Method: Primary human foreskin fibroblasts (HFFs) were cultivated in minimal essential medium (MEM). Cell culture media were supplemented with 1× GlutaMAXTM (35050038, Thermo Fisher Scientific), […] gentamicin and 10% fetal bovine serum (FBS, F7524, Sigma Aldrich). All cells were incubated at 37 °C, 5% CO2 and 80% humidity. For infection with human cytomegalovirus (HCMV strain AD169), 2 × 10^5 HFFs were seeded in 12-well plates for 1 day (d) prior to infection at a multiplicity of infection (MOI) of 0.1. After 90 min of viral absorption, cells were incubated with peptides in the culture media media, which was supplemented with 2.5% FBS, 1× GlutaMAX^TM and 10 µg/mL gentamicin, at the indicated concentrations at 37 °C for 4–8 days. Viral supernatants were collected at 4, 6 and 8 days post-infection (d.p.i.).
HFFs were seeded in 12-well plates, used for HCMV infection at a MOI of 0.1 and treated with the indicated concentrations of each peptide. […] The supernatants were centrifuged at 1500× g and digested with proteinase K at 56 °C for 1 h to release viral particles. The reactions were stopped at 95 °C for 5 min. The amount of extracellular viral genomic loads was assessed in […] of each sample by real-time PCR (TaqMan-PCR). Two primers, namely 5′CMV ([…]) and 3′CMV ([…]), which anneal to a sequence within the major immediate early gene region of HCMV, were obtained to amplify and quantify the viral genome. In addition, a FAM/TAMRA-labeled probe was used for detection. The viral load of a sample treated with DMSO only served as a negative control. HCMV genome equivalents from peptide-treated viral supernatants were calculated as % of the negative control.

[2] = system: HFF cells; test: Neutral Red cytotoxicity assay; type: cell-based, human; settings: peptides 0.008 µM to 100 µM, refreshed on day 5, read on day 7 of peptide treatment
Method: HFF cells were cultivated in 96-well plate with a density of 1.35 × 10^4 cells per well and incubated at 37 °C for 24 h. The cultured HFF cells were treated with peptides, at concentrations ranging from 0.008 µM to 100 µM, and incubated at 37 °C. On day 5, peptides were refreshed in the culture media and incubation was continued until day 7. A sample without compound (DMSO) served as a negative control, and a sample with 1 µM staurosporine (STP) as a positive control. On day seven, neutral red solution (40 µg/mL, Sigma Aldrich, N2889) was added to cultivated cells and incubated at 37 °C for […], followed by addition of destaining solution (ethanol/water/acetic acid, 50:49:1). Fluorescence was read at excitation/emission at 560/630 nm to quantify the uptake of neutral red.

[3] = molecular target: T1, HCMV pUL50–pUL53 interaction (Human cytomegalovirus, UniProt P16791); test: pUL50-pUL53 inhibition assay (plate-based, anti-His-HRP detection); type: binding; settings: peptide serial dilutions starting at 10 µM
T1 construct: Recombinant pUL50 and pUL53 were produced and purified as previously described; made in house
T1 sequence (P16791 1-175): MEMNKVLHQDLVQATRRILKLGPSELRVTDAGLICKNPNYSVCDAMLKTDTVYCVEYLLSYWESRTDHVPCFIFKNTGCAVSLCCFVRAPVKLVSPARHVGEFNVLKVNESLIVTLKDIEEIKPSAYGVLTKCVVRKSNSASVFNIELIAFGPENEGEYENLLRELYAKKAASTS
Method: Inhibition assay. Recombinant pUL50 and pUL53 were produced and purified as previously described. High binding Immulon microtiter plates were coated with 100 µL pUL53 (1 µg/mL) in sodium carbonate buffer pH 9.5, overnight at 4 °C. After blocking with 200 µL 1% BSA in 0.1 M phosphate buffer, pH 7.2, for two hours, plates were incubated with 50 µL peptide in serial dilutions, starting at 10 µM, together with 50 µL His-tagged pUL50 (0.78 µg/mL) for two and a half hours. His-tagged pUL50 was detected using anti-His-HRP (Merck, Darmstadt, Germany, 1:100,000). All proteins and antibodies were in 0.1 M phosphate buffer, pH 7.2, containing 0.1% BSA and 0.01% Tween 20. Plates were washed four times with 0.01% Tween 20 in 0.1 M phosphate buffer, pH 7.2, after each incubation step. Plates were developed with o-phenylenediamine (OPD) (1 mg/mL) in the presence of 0.03% H2O2 for approximately 5 min in the dark. After the reaction was stopped with 50 µL 2 M H2SO4, absorbance was read at 492 nm. IC50 values were determined from the % inhibition data using the program GraphPad. Inhibition was calculated according to the following formula:% Inhibition = [1 − (Asample − Ablank1)/(A100% − Ablank2)] × 100 in which “100%” is a sample without inhibitor, “blank1” is a sample without pUL53, and “blank2” is a sample without pUL53 and without inhibitor.

CC[C@H](C)[C@H](NC(=O)[C@H](C)NC(=O)[C@H](CCSC)NC(=O)[C@H](CCCCN)NC(=O)[C@H](CCSC)NC(=O)[C@H](CCSC)NC(=O)[C@H](CC(N)=O)NC(=O)[C@H](CC(C)C)NC(=O)[C@H](Cc1ccc(O)cc1)NC(=O)[C@H](CCCCN)NC(=O)[C@H](CC(C)C)NC(=O)[C@H](CCC(=O)O)NC(=O)[C@H](CC(C)C)NC(=O)[C@H](CCC(=O)O)NC(=O)[C@@H]1CCCN1C(=O)[C@H](Cc1c[nH]cn1)NC(=O)[C@H](CCC(=O)O)NC(=O)[C@H](CCCNC(=N)N)NC(=O)[C@H](Cc1ccccc1)NC(=O)[C@@H](NC(=O)[C@H](CC(=O)O)NC(=O)[C@H](Cc1c[nH]cn1)NC(=O)[C@H](CC(C)C)NC(=O)[C@H](CC(=O)O)NC(=O)[C@H](Cc1c[nH]cn1)NC(=O)[C@H](CC(C)C)NC(=O)[C@@H](NC(=O)[C@H](CC(C)C)NC(C)=O)[C@@H](C)O)[C@@H](C)CC)C(=O)N[C@H](C(N)=O)[C@@H](C)O [Hook peptide]
EC50 [1]: > 10 µM | effect on HCMV infection (in words) [1]: no significant effect | CC50, cytotoxic effect [2]: >100 µM

CC[C@H](C)[C@H](NC(=O)[C@H](C)NC(=O)[C@H](CCSC)NC(=O)[C@H](CCCCN)NC(=O)[C@H](CCSC)NC(=O)[C@H](CCSC)NC(=O)[C@H](CC(N)=O)NC(=O)[C@H](CC(C)C)NC(=O)[C@H](Cc1ccc(O)cc1)NC(=O)[C@H](CCCCN)NC(=O)[C@H](CC(C)C)NC(=O)[C@H](CCC(=O)O)NC(=O)[C@H](CC(C)C)NC(=O)[C@H](CCC(=O)O)NC(=O)[C@@H]1CCCN1C(=O)[C@H](Cc1c[nH]cn1)NC(=O)[C@H](CCC(=O)O)NC(=O)[C@H](CCCNC(=N)N)NC(=O)[C@H](Cc1ccccc1)NC(=O)[C@@H](NC(=O)[C@H](CC(=O)O)NC(=O)[C@H](Cc1c[nH]cn1)NC(=O)[C@H](CC(C)C)NC(=O)[C@H](CC(=O)O)NC(=O)[C@H](Cc1c[nH]cn1)NC(=O)[C@H](CC(C)C)NC(=O)[C@@H](NC(=O)[C@H](CC(C)C)NC(=O)COCCOCCNC(=O)[C@@H]1CCCN1C(=O)[C@@H]1CCCN1C(=O)[C@H](CCCNC(=N)N)NC(=O)[C@H](CCCNC(=N)N)NC(=O)[C@H](CCCNC(=N)N)NC(=O)[C@H](CCC(N)=O)NC(=O)[C@H](CCCNC(=N)N)NC(=O)[C@H](CCCNC(=N)N)NC(=O)[C@H](CCCCN)NC(=O)[C@H](CCCCN)NC(=O)[C@H](CCCNC(=N)N)NC(=O)CNC(=O)[C@H](Cc1ccc(O)cc1)NC(=O)COCCOCCNC(=O)[C@H](CCCNC(=N)N)NC(=O)[C@H](CCC(N)=O)NC(=O)[C@H](CCCNC(=N)N)NC(=O)[C@H](CCCNC(=N)N)NC(=O)[C@H](CCCCN)NC(=O)[C@H](CCCNC(=N)N)NC(=O)[C@H](CC(C)C)NC(=O)[C@H](CC(C)C)NC(=O)[C@H](CO)NC(=O)[C@H](CCCNC(=N)N)NC(C)=O)[C@@H](C)O)[C@@H](C)CC)C(=O)N[C@H](C(N)=O)[C@@H](C)O [NLS-CPP-Hook]
EC50 [1]: 5.6 ± 0.78 µM | CC50, cytotoxic effect [2]: 44.2 ± 6.9 µM

CC(=O)N[C@@H](CCCNC(=N)N)C(=O)N[C@@H](CO)C(=O)N[C@@H](CC(C)C)C(=O)N[C@@H](CC(C)C)C(=O)N[C@@H](CCCNC(=N)N)C(=O)N[C@@H](CCCCN)C(=O)N[C@@H](CCCNC(=N)N)C(=O)N[C@@H](CCCNC(=N)N)C(=O)N[C@@H](CCC(N)=O)C(=O)N[C@@H](CCCNC(=N)N)C(=O)NCCOCCOCC(=O)N[C@@H](Cc1ccc(O)cc1)C(=O)NCC(=O)N[C@@H](CCCNC(=N)N)C(=O)N[C@@H](CCCCN)C(=O)N[C@@H](CCCCN)C(=O)N[C@@H](CCCNC(=N)N)C(=O)N[C@@H](CCCNC(=N)N)C(=O)N[C@@H](CCC(N)=O)C(=O)N[C@@H](CCCNC(=N)N)C(=O)N[C@@H](CCCNC(=N)N)C(=O)N[C@@H](CCCNC(=N)N)C(=O)N1CCC[C@H]1C(=O)N1CCC[C@H]1C(N)=O [NLS-CPP]
effect on HCMV infection (in words) [1]: no significant effect | inhibitory effect on the pUL50-pUL53 interaction (in words) [3]: completely inactive
